Measured values: US20260256738A1, “METHODS OF TREATING CANCER WITH A RAS MUTATION” (Immuneering Corporation, priority 2023, published 2026)
Where two headings read alike, the source gives them in different places.

Tests used:
[1] = target: T1, CYP450 2C8 (Homo sapiens, UniProt P10632); assay: CYP450 Panel; assay type: in vitro ADME; settings: 10 μM; substrate amodiaquine
T1 sequence (P10632 1-490): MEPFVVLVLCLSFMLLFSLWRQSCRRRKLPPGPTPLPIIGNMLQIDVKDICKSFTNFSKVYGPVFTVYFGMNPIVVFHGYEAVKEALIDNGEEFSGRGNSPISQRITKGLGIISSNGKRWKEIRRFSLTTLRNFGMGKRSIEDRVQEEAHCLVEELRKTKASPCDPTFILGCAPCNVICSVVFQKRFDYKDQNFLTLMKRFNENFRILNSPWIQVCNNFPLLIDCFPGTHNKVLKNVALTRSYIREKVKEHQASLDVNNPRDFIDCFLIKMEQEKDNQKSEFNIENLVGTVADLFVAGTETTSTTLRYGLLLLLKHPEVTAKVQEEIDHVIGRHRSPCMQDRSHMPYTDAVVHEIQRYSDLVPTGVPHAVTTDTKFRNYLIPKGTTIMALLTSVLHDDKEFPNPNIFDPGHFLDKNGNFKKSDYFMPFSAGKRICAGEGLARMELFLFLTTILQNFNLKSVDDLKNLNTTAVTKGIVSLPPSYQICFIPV

[2] = Plasma Stability (% remaining @2 hour); assay type: in vitro ADME; settings: CD-1 Mouse; 2 μM
[3] = Microsome Stability (% remaining @1 hour); assay type: in vitro ADME; settings: Human; 2 μM
[4] = Microsome Stability (% remaining @1 hour); settings: CD-1 Mouse; 2 μM
[5] = target: CYP450 3A4 (Homo sapiens, UniProt P08684); assay: CYP450 Panel; assay type: in vitro ADME; settings: 10 μM; for CYP450 Panel 3A4 (midazolam): substrate midazolam; for CYP450 Panel 3A4 (testosterone): substrate testosterone
[6] = target: hERG Channel (Homo sapiens, UniProt Q12809); assay: biochemical
[7] = target: CYP450 2C19 (Homo sapiens, UniProt P33261); assay: CYP450 Panel; assay type: in vitro ADME; settings: 10 μM; substrate mephenytoin; in % (unit assumed)
[8] = Microsome Stability (% remaining @1 hour); assay type: in vitro ADME; settings: Beagle Dog; 2 μM
[9] = Plasma Stability (% remaining @2 hour); assay type: in vitro ADME; settings: Beagle Dog; 2 μM
[10] = target: T2, CYP450 2D6 (Homo sapiens, UniProt P10635); assay: CYP450 Panel; settings: 10 μM; substrate dextromethorphan; in % (unit assumed)
[11] = Plasma Stability (% remaining @2 hour); assay type: in vitro ADME; settings: SD Rat; 2 μM
[12] = test system: pERK in A549 (KRAS-G12S); assay: Cell-based pERK dose response / phospho-ERK screen in A549; set-up: species or system Human; settings: A549 (KRAS G12S), 10 μM for 2 hours
Method: Materials and Methods: A549 or A375 cells were seeded in 6-well plates at an appropriate seeding density on day 0. On day 2 or 3, after checking the health and confluency of cells, the media was aspirated and replaced with 1 mL media containing a predetermined concentration of compound and incubated for 2 hours. After 2 hours, the media was aspirated, and the cells washed 2 times with cold PBS. Cells were lysed on ice, with 50 μL 1× CST lysis buffer+1 mM PMSF for 5 minutes. After 5 minutes, cells were removed using a scraper and transferred to cold 1.5 mL tubes, and centrifuged for 10 min, 4° C., 14,000×g. Supernatant was gently removed and snap frozen in liquid nitrogen. Protein concentration of the lysate was determined using Bradford Reagent (analyzed using SpectraMax M2E) and diluted to 1 mg/mL or pERK or 1.5 mg/mL for pMEK analysis. […] All dilutions were in Milk-free antibody diluent.

[13] = target: T3, CYP450 2B6 (Homo sapiens, UniProt P20813); assay: CYP450 Panel; assay type: in vitro ADME; settings: 10 μM; substrate bupropion
T3 sequence (P20813 1-491): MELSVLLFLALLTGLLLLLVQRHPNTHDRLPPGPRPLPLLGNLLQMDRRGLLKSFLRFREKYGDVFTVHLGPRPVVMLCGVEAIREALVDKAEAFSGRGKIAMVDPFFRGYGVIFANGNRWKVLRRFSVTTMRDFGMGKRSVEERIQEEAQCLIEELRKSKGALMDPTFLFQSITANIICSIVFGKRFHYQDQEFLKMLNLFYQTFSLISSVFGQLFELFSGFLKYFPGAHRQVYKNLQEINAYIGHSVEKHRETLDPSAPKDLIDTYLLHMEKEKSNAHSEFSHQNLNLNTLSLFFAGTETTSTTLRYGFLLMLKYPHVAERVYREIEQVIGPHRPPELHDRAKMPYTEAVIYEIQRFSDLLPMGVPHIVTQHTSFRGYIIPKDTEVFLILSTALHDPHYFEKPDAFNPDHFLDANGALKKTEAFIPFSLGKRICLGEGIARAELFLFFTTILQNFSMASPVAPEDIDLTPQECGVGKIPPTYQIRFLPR

[14] = Microsome Stability (% remaining @1 hour); assay type: in vitro ADME; settings: SD Rat; 2 μM
[15] = target: T4, CYP450 1A2 (Homo sapiens, UniProt P05177); assay: CYP450 Panel; settings: 10 μM; substrate phenacetin; in % (unit assumed)
T4 sequence (P05177 1-516): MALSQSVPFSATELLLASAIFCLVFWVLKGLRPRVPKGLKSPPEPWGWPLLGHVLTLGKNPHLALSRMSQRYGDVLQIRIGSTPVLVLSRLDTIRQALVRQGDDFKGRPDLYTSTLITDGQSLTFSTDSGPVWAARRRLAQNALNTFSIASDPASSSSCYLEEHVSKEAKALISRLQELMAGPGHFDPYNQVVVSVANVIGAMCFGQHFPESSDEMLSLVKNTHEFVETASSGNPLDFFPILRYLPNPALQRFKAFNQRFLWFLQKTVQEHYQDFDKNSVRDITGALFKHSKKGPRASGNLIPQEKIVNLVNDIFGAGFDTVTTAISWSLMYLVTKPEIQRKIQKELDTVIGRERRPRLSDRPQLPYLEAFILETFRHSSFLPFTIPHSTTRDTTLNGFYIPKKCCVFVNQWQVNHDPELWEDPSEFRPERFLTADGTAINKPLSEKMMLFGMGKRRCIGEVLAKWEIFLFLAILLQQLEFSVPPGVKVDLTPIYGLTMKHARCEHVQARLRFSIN

[16] = Plasma Stability (% remaining @2 hour); assay type: in vitro ADME; settings: Human; 2 μM
[17] = test system: Caco-2; assay: Caco-2 permeability; settings: 10 μM, 2 hrs
[18] = Caco-2 permeability; settings: human
[19] = target: CYP450 2C9 (Homo sapiens, UniProt P11712); assay: CYP450 Panel; assay type: in vitro ADME; settings: 10 μM; substrate Diclofenac; in % (unit assumed)
[20] = test system: Caco-2
[21] = Human plasma pharmacokinetics of approved MEK inhibitors; assay type: in vivo; settings: human dosing cycle
[22] = cited from earlier work
[23] = Tissue pharmacokinetics in Colon-26 tumor bearing mice, 2-hour post dose; assay type: in vivo; settings: single dose 100 mg/kg p.o.
Method: Female mice (either athymic BALC/c nude, or BALB/c mice) were inoculated with a single subcutaneous injection of 0.2 ml of mouse Colon-26 cell suspension (1×10^5 cells per animal) in the inguinal region. Colon26 (C26) tumor bearing mice received a single dose (3 mice/treatment) of vehicle (10% DMSO/90% [20% SBE-R-CD in saline], pH 5) containing compounds at 100 mg/kg by gavage (p.o.) and 2-hour post dose humanely euthanized.
Blood was obtained through cardiac puncture into K+EDTA tubes, mixed by inversion and centrifuged to obtain the plasma. Tissues were excised, cleaned of surrounding tissues. All samples immediately snap frozen in liquid N2 prior to LC-MS/MS analysis (using Waters HSS T3 2.1×50 mm (1.8 um) LC column, and an API-6500 Electrospray MS unit).

[24] = eLogD (lipophilicity; pH=7.4); assay type: physicochemical
Method: Test compounds were dissolved in DMSO at a concentration of 10 mM and further diluted with methanol:water 1:1. Samples were analyzed using gradient HPLC with three different isocratic mobile phases of 0.25% octanol in methanol (60, 65 and 70%) and 20 mM MOPS buffer (pH 7.4) with decylamine. If needed, (for low E log Doct compounds) the isocratic mobile phases were adjusted to e.g. 40, 45 and 50% methanol. Peaks were detected using a diode array at absorbance 220-320 nm.
Capacity factors data (k′_(tr−_t0)/t0) obtained at various amounts of methanol were extrapolated to 0% methanol and k′w values are determined using a linear procedure. E log Doct (7.4) is calculated using a series of reference standards with known Log D values. Each experiment was performed in triplicate.

[25] = target: T2, CYP450 2D6

Chain of CYP450 3A4 (P08684 whole entry): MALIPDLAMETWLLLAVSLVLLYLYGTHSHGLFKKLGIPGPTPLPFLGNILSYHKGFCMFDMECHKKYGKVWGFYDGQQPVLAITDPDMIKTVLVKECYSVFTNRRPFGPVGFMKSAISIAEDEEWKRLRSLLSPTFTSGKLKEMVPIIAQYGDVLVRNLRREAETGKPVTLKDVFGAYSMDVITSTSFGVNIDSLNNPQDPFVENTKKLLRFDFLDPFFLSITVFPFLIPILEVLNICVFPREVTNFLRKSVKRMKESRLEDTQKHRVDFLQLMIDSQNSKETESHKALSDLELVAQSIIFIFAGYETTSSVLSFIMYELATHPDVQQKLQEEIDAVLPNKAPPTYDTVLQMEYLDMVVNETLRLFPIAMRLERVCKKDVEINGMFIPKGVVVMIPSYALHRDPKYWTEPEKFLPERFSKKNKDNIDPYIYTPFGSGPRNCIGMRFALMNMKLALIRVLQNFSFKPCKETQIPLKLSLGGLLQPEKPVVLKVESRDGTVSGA
Chain of CYP450 2C19 (P33261 whole entry): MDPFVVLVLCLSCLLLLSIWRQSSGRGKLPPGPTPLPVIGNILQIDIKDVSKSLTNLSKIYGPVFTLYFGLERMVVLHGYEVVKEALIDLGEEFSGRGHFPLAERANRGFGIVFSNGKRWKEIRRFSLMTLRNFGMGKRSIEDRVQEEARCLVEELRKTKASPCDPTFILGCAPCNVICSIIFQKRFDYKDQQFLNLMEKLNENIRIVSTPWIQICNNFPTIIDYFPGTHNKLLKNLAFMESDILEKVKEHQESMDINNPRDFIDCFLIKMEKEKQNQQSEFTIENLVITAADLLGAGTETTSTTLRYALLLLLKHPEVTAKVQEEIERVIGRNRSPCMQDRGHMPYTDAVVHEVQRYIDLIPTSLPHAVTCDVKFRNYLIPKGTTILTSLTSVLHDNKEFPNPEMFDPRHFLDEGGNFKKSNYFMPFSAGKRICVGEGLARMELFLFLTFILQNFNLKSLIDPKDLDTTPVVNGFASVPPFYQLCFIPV
T2 sequence (P10635 whole entry): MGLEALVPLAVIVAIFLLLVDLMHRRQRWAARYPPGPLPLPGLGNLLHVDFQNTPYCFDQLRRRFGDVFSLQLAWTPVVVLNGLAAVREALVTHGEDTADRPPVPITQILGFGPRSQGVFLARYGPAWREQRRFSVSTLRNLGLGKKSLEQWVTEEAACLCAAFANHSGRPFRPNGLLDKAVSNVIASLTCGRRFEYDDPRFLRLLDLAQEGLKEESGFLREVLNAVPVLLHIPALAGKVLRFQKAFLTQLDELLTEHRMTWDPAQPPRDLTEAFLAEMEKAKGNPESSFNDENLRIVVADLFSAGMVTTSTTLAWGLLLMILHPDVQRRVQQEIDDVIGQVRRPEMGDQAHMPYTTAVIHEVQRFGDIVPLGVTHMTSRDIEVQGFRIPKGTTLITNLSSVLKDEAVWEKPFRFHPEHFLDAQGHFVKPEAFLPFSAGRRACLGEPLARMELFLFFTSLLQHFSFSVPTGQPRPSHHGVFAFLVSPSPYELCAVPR
Chain of CYP450 2C9 (P11712 whole entry): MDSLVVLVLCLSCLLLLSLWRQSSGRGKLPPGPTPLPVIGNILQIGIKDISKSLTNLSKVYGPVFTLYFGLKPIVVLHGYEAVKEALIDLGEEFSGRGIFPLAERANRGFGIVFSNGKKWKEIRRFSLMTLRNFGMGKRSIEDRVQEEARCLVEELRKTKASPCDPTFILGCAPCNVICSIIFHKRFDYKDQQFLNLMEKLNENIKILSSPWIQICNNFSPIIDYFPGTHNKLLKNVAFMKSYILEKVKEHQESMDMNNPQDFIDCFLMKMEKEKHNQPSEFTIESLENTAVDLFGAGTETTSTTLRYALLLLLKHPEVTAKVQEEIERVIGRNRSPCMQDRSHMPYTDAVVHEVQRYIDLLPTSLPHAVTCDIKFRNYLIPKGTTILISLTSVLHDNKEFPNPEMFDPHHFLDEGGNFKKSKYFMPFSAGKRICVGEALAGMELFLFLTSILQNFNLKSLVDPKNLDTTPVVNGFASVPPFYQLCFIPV
Chain of hERG Channel (Q12809 whole entry): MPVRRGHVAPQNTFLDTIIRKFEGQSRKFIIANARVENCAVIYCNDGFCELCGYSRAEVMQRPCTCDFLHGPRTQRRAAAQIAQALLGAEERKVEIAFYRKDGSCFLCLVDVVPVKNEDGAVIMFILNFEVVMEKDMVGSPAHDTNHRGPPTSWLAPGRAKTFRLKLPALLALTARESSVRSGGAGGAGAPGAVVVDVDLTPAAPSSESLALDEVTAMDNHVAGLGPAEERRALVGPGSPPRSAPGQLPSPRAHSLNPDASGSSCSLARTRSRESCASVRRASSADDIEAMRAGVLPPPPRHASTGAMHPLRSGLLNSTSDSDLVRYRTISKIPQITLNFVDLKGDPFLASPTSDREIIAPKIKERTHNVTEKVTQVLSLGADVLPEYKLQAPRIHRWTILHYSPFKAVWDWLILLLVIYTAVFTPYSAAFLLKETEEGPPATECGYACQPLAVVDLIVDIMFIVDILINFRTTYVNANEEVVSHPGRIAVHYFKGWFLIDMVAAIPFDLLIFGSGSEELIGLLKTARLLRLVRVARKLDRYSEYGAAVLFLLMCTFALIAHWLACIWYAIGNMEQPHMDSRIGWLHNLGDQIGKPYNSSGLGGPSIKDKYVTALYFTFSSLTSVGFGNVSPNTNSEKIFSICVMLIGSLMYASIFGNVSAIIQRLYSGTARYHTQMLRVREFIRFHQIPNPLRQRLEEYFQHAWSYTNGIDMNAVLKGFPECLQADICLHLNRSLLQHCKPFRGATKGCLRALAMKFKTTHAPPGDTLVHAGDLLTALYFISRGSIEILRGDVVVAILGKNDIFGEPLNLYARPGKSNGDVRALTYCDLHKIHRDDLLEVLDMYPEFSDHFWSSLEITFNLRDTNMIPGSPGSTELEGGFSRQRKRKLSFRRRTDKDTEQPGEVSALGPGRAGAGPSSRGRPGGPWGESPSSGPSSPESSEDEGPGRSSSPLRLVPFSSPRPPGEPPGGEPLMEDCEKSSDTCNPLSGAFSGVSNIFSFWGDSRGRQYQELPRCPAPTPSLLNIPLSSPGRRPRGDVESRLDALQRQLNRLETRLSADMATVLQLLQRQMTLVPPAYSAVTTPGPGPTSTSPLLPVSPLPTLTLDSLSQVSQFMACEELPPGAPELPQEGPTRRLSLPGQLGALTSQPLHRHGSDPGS

In the case of CNS(=O)(=O)Nc1cccc(Cc2c(C)c3ccc(OC(=O)N(C)C)cc3oc2=O)c1F [Reference 7], the CYP450 Panel 2C8 [1] is reported as 14.4%, the “Plasma stability, % Remaining @2 hour” value [2] is reported as 56.5% and the “Microsome stability, % Remaining @1 hour” value [3] is reported as 61.1%. For the same molecule, the “Microsome stability, % Remaining @1 hour” value [4] was 29.6%, the CYP450 Panel 3A4 (midazolam) [5] was 29.9% and the CYP450 Panel 3A4 (testosterone) [5] was 59.7%. For the same molecule, the IC50 [6] was 28.6 µM, the “CYP450 Panel 2C19” value [7] was 11.6 and the “Microsome stability, % Remaining @1 hour” value [8] was 57.0%. For the same molecule, the “Plasma stability, % Remaining @2 hour” value [9] was 99.8%, the “CYP450 Panel 2D6” value [10] was −7.4 and the “Plasma stability, % Remaining @2 hour” value [11] was 77.3%. For the same molecule, the “pERK: total ERK (% relative to vehicle)” value ([12]; Table 8A) was 0.53%, the “pERK: total ERK (% relative to vehicle)” value ([12]; Table 8B) was 3.33% and the CYP450 Panel 2B6 [13] was 28.5%. The “Microsome stability, % Remaining @1 hour” value [14] was 2.7%, the “CYP450 Panel 1A2” value [15] was 0.3 and the “Plasma stability, % Remaining @2 hour” value [16] was 88.1%. The “A − B Permeability Ranking” value [17] was “High”, the Papp A→B at 2 h, 10 μM [18] was 14.4 ×10⁻⁶ cm/s and the Papp B→A at 2 h, 10 μM [18] was 10 ×10⁻⁶ cm/s. The efflux ratio at 2 h, 10 μM [18] was 0.695 and the “CYP450 Panel 2C9” value [19] was 33.8.
In the case of CC(C)[N+](C)(CCOC(=O)C1c2ccccc2Oc2ccccc21)C(C)C [Propantheline], the “Plasma stability, % Remaining @2 hour” value [2] is reported as 27.1%, the “Plasma stability, % Remaining @2 hour” value [9] is reported as 58.4% and the “Plasma stability, % Remaining @2 hour” value [11] is reported as 92.6%. The “Plasma stability, % Remaining @2 hour” value [16] was 5.7%.
With CC(=O)CC(c1ccccc1)c1c(O)c2ccccc2oc1=O (stereo not drawn) [Warfarin] the “A − B Permeability Ranking” value [20] was “High”.
For CNC(=C[N+](=O)[O-])NCCSCc1ccc(CN(C)C)o1 [Ranitidine], the “A − B Permeability Ranking” value [17] was “Low”.
For O=C(c1ccc(F)c(F)c1Nc1ccc(I)cc1F)N1CC(O)([C@@H]2CCCCN2)C1 [cobimetinib], the “half-lives per (BID) cycle” value [21] is given as no more than 0.55 half-lives, the Tmax ([22]; human) is given as 2.4 h and the human plasma half-life ([22]; human) is given as 44 h.
In the case of CC[C@H](C)C(=O)O[C@H]1C[C@@H](C)C=C2C=C[C@H](C)[C@H](CC[C@@H]3C[C@@H](O)CC(=O)O3)[C@H]21 [Lovastatin], the “Plasma stability, % Remaining @2 hour” value [2] is reported as 0.6%, the “Plasma stability, % Remaining @2 hour” value [9] is reported as 94.1% and the “Plasma stability, % Remaining @2 hour” value [11] is reported as 0.6%. The “Plasma stability, % Remaining @2 hour” value [16] was 81.8%.
In the case of CC(=O)Nc1cccc(-n2c(=O)n(C3CC3)c(=O)c3c(Nc4ccc(I)cc4F)n(C)c(=O)c(C)c32)c1 [trametinib], the “half-lives per (BID) cycle” value [21] is given as no more than 0.25 half-lives and the human plasma half-life ([22]; human) is given as 96 h.
O=c1c(O)c(-c2ccc(O)c(O)c2)oc2cc(O)cc(O)c12 [Quercetin] gave a CYP450 Panel 2C8 [1] of 93.1%.
With CNS(=O)(=O)Nc1nccc(Cc2c(C)c3ccc(Oc4ncccn4)cc3oc2=O)c1F [Reference 2] the “Plasma stability, % Remaining @2 hour” value [2] was 92.9%, the “Microsome stability, % Remaining @1 hour” value [3] was 107.1% and the “Microsome stability, % Remaining @1 hour” value [4] was 96.0%. For the same molecule, the Liver concentration [23] was 1990 ng/g, the Muscle concentration [23] was 550 ng/g and the Plasma concentration [23] was 5670 ng/mL. It also gave a Tumor concentration [23] of 819 ng/g, a CYP450 Panel 3A4 (midazolam) [5] of 16.6% and a CYP450 Panel 3A4 (testosterone) [5] of 15.7%. The “CYP450 Panel 2C19” value [7] was −0.9, the “Microsome stability, % Remaining @1 hour” value [8] was 111.6% and the “Plasma stability, % Remaining @2 hour” value [9] was 99.8%. The “CYP450 Panel 2D6” value [10] was 3.4, the “Plasma stability, % Remaining @2 hour” value [11] was 99.8% and the “eLogD (lipophilicity; pH = 7.4)” value [24] was 3.6. The “Microsome stability, % Remaining @1 hour” value [14] was 102.0%, the “CYP450 Panel 1A2” value [15] was 0.8 and the “Plasma stability, % Remaining @2 hour” value [16] was 91.1%. For the same molecule, the “A − B Permeability Ranking” value [17] was “High”.
With C=C[C@H]1C[N@@]2CC[C@H]1C[C@@H]2[C@@H](O)c1ccnc2ccc(OC)cc12 [Quinidine] the “CYP450 Panel 2D6” value [25] was 99.7.
For Cn1cnc2c(F)c(Nc3ccc(Br)cc3F)c(C(=O)NOCCO)cc21 [Binimetinib], the “half-lives per (BID) cycle” value [21] is given as no more than 3.4 half-lives and the half-life ([22]; in vivo) is given as 3.5 h.
For Nc1ccc(S(=O)(=O)Nc2ccnn2-c2ccccc2)cc1 [Sulfaphenazole], the “CYP450 Panel 2C9” value [19] was 101.2.
For COc1ccc2[nH]c([S+]([O-])Cc3ncc(C)c(OC)c3C)nc2c1 (stereo not drawn) [Omeprazole], the “CYP450 Panel 2C19” value [7] was 61.6.
